Source: patent US20160355503A1, “NITROGEN HEXACYCLE COMPOUNDS AS INHIBITORS OF p97 COMPLEX” (Cleave Biosciences, Inc., priority 2015, published 2016)

Columns and labels:
p97 = p97 (Homo sapiens, UniProt P55072); assay: P97 ATPase biochemical assay (ADP Glo); conditions: 20 nM p97, 20 μM ATP, 37° C. for 15 minutes
Description: The ATPase assay is performed according the following protocol: Purified enzyme (20 nM p97), substrate (20 μM ATP) and a dose titration of compounds are mixed in buffer (50 mM TRIS pH 7.5, 20 mM MgCl2, 0.02% TX-100, 1 mM DTT, 0.2% (v/v) glycerol) and incubated at 37° C. for 15 minutes. The reaction is terminated and the level of product generated is measured using the ADP Glo Assay Kit (Promega, Madison Wis.). Plotting product generated versus compound concentration and using a four-parameter fit model generates an IC50 value for each compounds.
The p97 assay is an initial screening assay used to determine inhibitory activity of the triazine compounds of the invention against the p97 complex. As discussed above, inhibition of activity of the p97 proteosome complex can enable apoptosis and cause elimination of neoplastic cells (cancer cells). The method follows that of Christianson in Nat. Cell Biol., (2011) 14:93.
Assay Buffer is a mixture of 50 mM TRIS pH 7.5, 20 mM MgCl2, 0.02% TX-100, 1 mM DTT and 0.2% (v/v) Glycerol. The well plate is Platetype: Corning 3674, 384w plate. The identification kit is an ADP glo kit (Promega): stop buffer, detection reagent.
Serial dilute compound in DMSO in a 1:3.33-fold 10 point serial dilution.
in each well of 384w plate add the following reagents:
0.5 μL compound serial diluted in DMSO (Final Conc. 10%)
2 μL ATP (Final Conc.=20 uM, diluted in assay buffer)
2.5 μL p97 (Final Conc.=20 nM, diluted in assay buffer)
Incubate at 37 deg C. for 15 min.
Add 5 μL of stop buffer, incubate at RT for 40 min.
Add 10 μL of detection reagent, incubate at RT for 30 min.
Read luminescence on Envision plate reader.
Upon obtaining the data from the luminescence reading, the data may be analyzed as follows:
Normalize luminescence data using no enzyme (full inhibition) and no compound (no inhibition) controls. Plot normalized luminescence data against log-transformed concentration values and fit to a sigmoidal curve to determine IC50 values (done in Collaborative Drug Discovery software).

A549 cells = assay: Cultured cancer cell viability assay (cell titer glo, CTG); format: cell-based; conditions: Homo sapiens, 72 hr incubation
Description: Anti-tumor effects are monitored in cultured cancer cells after several days of compound treatment. The cell titer glo assay (Promega) measures the amount of ATP present as a proxy for cellular viability. Cellular counting is done using high-content microscopy followed by image analysis. A hanging drop 3D-culture system (3D Biomatrix) is used followed by cell titer glo to measure growth in a tumor-like environment.
(§1) The cellular assay provides information about the anti-neoplastic activity of the compounds of the invention. The compounds are tested against cultured cancer cells to determine whether or not the compounds of the invention are capable of intersecting with cancer cells to minimize or eliminate such cells. The assay involves establishing colonies of such cells and then treating them with the test compound under specified conditions and analysis regima to determine results.
(§2) Cell Plating: • Seed cells ˜16 hrs prior to compound treatment • Plate 25 μL of A549 cells in every well of 384-well plate using multidrop. • Two (2) black plates for IF at 2500 cells/well • Let plate sit at room temp for 10-15 minutes prior to putting in incubator to allow cells to stick in middle of plate. • One (1) white plate for viability at 500 cells/well.
(§3) Treat Cells: • Serial dilute compounds with a 10 point 2-fold serial dilution in DMSO to make 250× stock compound solution • Dilute compounds 1:125 in cell culture media to make a 2× solution • Add 25 μl of dilution compounds to cell plates in well duplicates • Put cells back in incubator (6 hr incubation for black plates, 72 hr incubation for white plates).
Viability Assay: • Thaw an aliquot of frozen cell titer glo (Promega G7572) at room temperature. • Add 45 mL of NaCl/PBS solution to 5 ml of cell titer glo (10×). • Remove white plates from incubator, leave at room temp for 30 minutes. • Add 25 μl of diluted cell titer glo to each well. • Shake plate for >1 minute. • Incubate plate for >5 minutes to stabilize luminescence. • Luminescence is stable for up to 3 hours. • Read luminescence on plate reader

K48-Ub = K48-Ub immunofluorescence assay in A549 cells; format: cell-based; conditions: Homo sapiens, 6 hr incubation
Description: Image-analysis is used to generate quantitative data from these assays that can be fit to a four-parameter sigmoid curve to derive IC50 values. Substrates of the ubiquitin-proteasome system, such as p53, are monitored after tumor cell lines are incubated with compounds for several hours. Accumulation of these proteins indicates an inhibition of proteasome-mediated degradation. Accumulation of lysine-48 chain linkage of poly-ubiquitin is also monitored by immunofluorescence as an indicator of ubiquitin-proteasome system inhibition. Both LC3 and SQSTM1 are mediators of autophagy. The localization and amounts of these proteins are monitored by immunofluorescence and report on the activity and inhibition of autophagy in response to p97 inhibition.
as §1, §2, §3
Fix/Stain Black Plates: • Incubate cells in black plates with compound at 37 deg C. for 6 hrs. • add 15 μL of 16% Paraformaldehyde (PFA) directly into media of each well, • incubate at room temp for 5 min, flick plate and wash in 50 μL of PBS • block in 50 μL of Blocking Buffer for 30 minutes (can go up to several hours) • Blocking buffer: 1×PBS, 1% BSA, 0.3% Triton-X100, Hoechst (1:10,000) • incubate in 25 μL of primary antibody in blocking buffer at 4 deg C. over night
Secondary Antibodies: • AlexaFluor488 Goat anti-Rabbit 1:2,000 (Life Tech A11008) • AlexaFluor555 Goat anti-Mouse 1:2,000 (Life Tech A21422) […]
Data Analysis: • Nuclear counts and cellular intensities of each markers are measured using Hoechst as a nuclear marker with an automated image analysis protocol using Matlab software (Math Works)

Chain of p97 (P55072 whole entry): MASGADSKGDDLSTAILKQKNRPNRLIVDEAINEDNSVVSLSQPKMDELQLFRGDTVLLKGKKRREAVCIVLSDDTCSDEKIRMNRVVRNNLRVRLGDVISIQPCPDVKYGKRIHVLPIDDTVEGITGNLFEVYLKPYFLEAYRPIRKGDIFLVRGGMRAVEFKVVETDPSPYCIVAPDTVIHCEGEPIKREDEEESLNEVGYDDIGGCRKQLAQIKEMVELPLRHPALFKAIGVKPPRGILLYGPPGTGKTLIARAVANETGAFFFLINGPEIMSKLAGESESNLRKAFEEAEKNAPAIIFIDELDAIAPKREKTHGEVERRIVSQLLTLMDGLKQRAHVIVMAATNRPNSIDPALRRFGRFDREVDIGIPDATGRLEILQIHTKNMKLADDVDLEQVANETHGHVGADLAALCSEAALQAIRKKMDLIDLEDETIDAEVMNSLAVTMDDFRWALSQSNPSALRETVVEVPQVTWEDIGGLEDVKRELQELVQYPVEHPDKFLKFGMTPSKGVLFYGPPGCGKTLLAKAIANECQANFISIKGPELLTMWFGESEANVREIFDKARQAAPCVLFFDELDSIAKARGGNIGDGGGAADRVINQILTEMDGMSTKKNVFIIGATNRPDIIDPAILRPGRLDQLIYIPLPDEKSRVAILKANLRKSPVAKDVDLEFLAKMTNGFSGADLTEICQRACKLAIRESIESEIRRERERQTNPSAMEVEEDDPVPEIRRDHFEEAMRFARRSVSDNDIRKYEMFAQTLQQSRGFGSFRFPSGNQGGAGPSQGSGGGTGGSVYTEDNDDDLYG

IC50 (p97)	IC50 (A549 cells)	IC50 (K48-Ub)	Peff A B, Range (Caco-2 cells; pH 7.4 Caco-2, A to B)	Peff B A, Range (Caco-2 cells; pH 7.4 Caco-2, B to A)	Structure (SMILES)
< 0.03 µM	< 1 µM	< 1 µM	–	–	CCc1nnc(-n2c(C)cc3c(C(N)=O)cccc32)nc1NCc1ccccc1 [1-(5-(benzylamino)-6-ethyl-1,2,4-triazin-3-yl)-2-methyl-1H-indole-4-carboxamide]
< 0.03 µM	< 3 µM	< 3 µM	–	–	Cc1nnc(-n2c(C)cc3c(C(N)=O)cccc32)nc1NCc1ccccc1 [1-(5-(benzylamino)-6-methyl-1,2,4-triazin-3-yl)-2-methyl-1H-indole-4-carboxamide]
< 1 µM	< 10 µM	< 3 µM	–	–	Cc1nnc(-n2c(C)cc3c(C(N)=O)cccc32)nc1NCc1cccc(F)c1 [1-(5-((3-fluorobenzyl)amino)-6-methyl-1,2,4-triazin-3-yl)-2-methyl-1H-indole-4-carboxamide]
< 0.1 µM	< 10 µM	< 3 µM	–	–	Cc1nc(NCc2ccccc2)nc(-n2c(C)cc3c(C(N)=O)cccc32)n1 [1-(4-(benzylamino)-6-methyl-1,3,5-triazin-2-yl)-2-methyl-1H-indole-4-carboxamide]
–	–	–	18.50-36.80 ×E−6 cm/sec	16.30-31.40 ×E−6 cm/sec	CC(C)NCC(O)COc1cccc2ccccc12 (stereo not shown) [Propranolol]
< 10 µM	–	–	–	–	Cc1nnc(-n2c(CN)cc3c(C(N)=O)cccc32)nc1NCc1ccccc1 [2-(aminomethyl)-1-(5-(benzylamino)-6-methyl-1,2,4-triazin-3-yl)-1H-indole-4-carboxamide]
< 10 µM	–	–	–	–	COc1nc2c(C#N)cccc2n1-c1nnc(C)c(NCc2ccccc2)n1 [1-(5-(benzylamino)-6-methyl-1,2,4-triazin-3-yl)-2-methoxy-1H-benzo[d]imidazole-4-carbonitrile]
